In patent US20240252488A1 (KOREA RESEARCH INSTITUTE OF CHEMICAL TECHNOLOGY, priority 2020, published 2024):
pKd: −log10 of the molar value.

What was measured:
FADD−/− Jurkat cells = assay: Necroptosis inhibition assay, TNF-α-induced necroptosis (CellTiter-Glo 2.0); assay type: cell-based, human; conditions: TNF-α 15 ng/mL; for Necroptosis inhibition assay (Rescue %) 1 μM: compound 1 μM; for Necroptosis inhibition assay (Rescue %) 10 μM: compound 10 μM
Method in brief: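 Compound is added to cells at final concentrations of 0.1, 1 and 10 μM and left 30 minutes at room temperature. Necroptosis is induced with 15 ng/mL TNF-α, culture continues 20 to 24 hours at 37° C, and ATP-based luminescence reports viability.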

MLKL [1] = target: T1, MLKL (Homo sapiens, UniProt Q8NB16); assay: Measurement of binding affinity with MLKL receptor (competitive binding assay, Kd); set-up: made in house; host or cells: HEK 293 cell line (T7 phage in E. coli BL21-derived host is also described)
T1 sequence (Q8NB16 1-471): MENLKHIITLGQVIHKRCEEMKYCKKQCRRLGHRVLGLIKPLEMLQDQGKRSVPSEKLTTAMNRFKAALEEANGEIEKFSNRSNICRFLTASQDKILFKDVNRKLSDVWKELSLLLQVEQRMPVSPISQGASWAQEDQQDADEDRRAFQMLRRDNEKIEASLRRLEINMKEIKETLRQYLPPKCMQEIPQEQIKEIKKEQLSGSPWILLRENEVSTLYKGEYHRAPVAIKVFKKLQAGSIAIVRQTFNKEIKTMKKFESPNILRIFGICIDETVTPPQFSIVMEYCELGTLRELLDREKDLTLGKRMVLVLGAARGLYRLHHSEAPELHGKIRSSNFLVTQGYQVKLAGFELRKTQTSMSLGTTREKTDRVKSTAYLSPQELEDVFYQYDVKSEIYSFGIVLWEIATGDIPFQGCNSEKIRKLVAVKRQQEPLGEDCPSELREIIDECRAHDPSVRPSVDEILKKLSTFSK
Method in brief: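 HEK 293-expressed, DNA-tagged MLKL; ligand beads blocked with biotin and SeaBlock/1% BSA/0.05% Tween 20/1 mM DTT buffer. Cpd from 111× DMSO stock, 0.9% DMSO final. Eluted kinase by qPCR → Kd.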

MLKL [2] = target: T1, MLKL; assay: MLKL degradation assay in HepG2 cell line (western blot); assay type: cell-based; set-up: endogenous in cells; host or cells: HepG2 or HaCaT; conditions: cell line not given; for Degradation assay (Degradation %) 1 μM: compound 1 μM; for Degradation assay (Degradation %) 10 μM: compound 10 μM
Method in brief: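 Chemiluminescent western blot signal reports remaining MLKL protein in HepG2 cells after 20-24 h treatment with compound at a final 1 or 10 μM. Equal protein (10-15 μg, BCA) is loaded per lane.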

SMILES	Necroptosis inhibition assay (Rescue %) 1 μM (FADD−/− Jurkat cells) [%]	Necroptosis inhibition assay (Rescue %) 10 μM (FADD−/− Jurkat cells) [%]	pKd (MLKL [1])	Degradation assay (Degradation %) 1 μM (MLKL [2]) [%]	Degradation assay (Degradation %) 10 μM (MLKL [2]) [%]	Necroptosis inhibition assay (Rescue %) 1 μM (FADD−/− Jurkat cells; FADD−/− Jurkat cells) [%]	Necroptosis inhibition assay (Rescue %) 10 μM (FADD−/− Jurkat cells; FADD−/− Jurkat cells) [%]
Nc1ncc(-c2cnn(C3CCN(CCCCCCCCCCNC(=O)COc4ccc5c(c4)C(=O)N(C4CCC(=O)NC4=O)C5=O)CC3)c2)nc1C(=O)O[C@@H](C(=O)Nc1ccc(F)cc1)c1ccccc1 (stereo partly drawn) [TDH-164, (R)-2-((4-fluorophenyl)amino)-2-oxo-1-phenylethyl 3-amino-6-(1-(1-(10-(2-((2-(2,6-dioxopiperidin-3-yl)-1,3-dioxoisoindolin-5-yl)oxy)acetamido)decyl)piperidin-4-yl)-1H-pyrazol-4-yl)pyrazine-2-carboxylate]	27.84	10.5	7.70	55.2	46.68		
Nc1ncc(-c2cnn(C3CCN(C(=O)CC4CCN(C(=O)COc5ccc6c(c5)C(=O)N(C5CCC(=O)NC5=O)C6=O)CC4)CC3)c2)nc1C(=O)O[C@@H](C(=O)Nc1ccc(F)cc1)c1ccccc1 (stereo partly drawn) [TDH-338, (R)-2-((4-fluorophenyl)amino)-2-oxo-1-phenylethyl 3-amino-6-(1-(1-(2-(1-(2-((2-(2,6-dioxopiperidin-3-yl)-1,3-dioxoisoindolin-5-yl)oxy)acetyl)piperidin-4-yl)acetyl)piperidin-4-yl)-1H-pyrazol-4-yl)pyrazine-2-carboxylate]	50.8	50.29	8.26	59.83	79.19		
COc1ccc(C(=O)N2CCC(OCCN3CCC(n4cc(-c5cnc(N)c(C(=O)O[C@@H](C(=O)Nc6ccc(F)cc6)c6ccccc6)n5)cn4)CC3)CC2)cc1N1CCC(=O)NC1=O [TDH-448, (R)-2-((4-fluorophenyl)amino)-2-oxo-1-phenylethyl 3-amino-6-(1-(1-(2-((1-(3-(2,4-dioxotetrahydropyrimidin-1(2H)-yl)-4-methoxybenzoyl)piperidin-4-yl)oxy)ethyl)piperidin-4-yl)-1H-pyrazol-4-yl)pyrazine-2-carboxylate]			9.42	48.26	7.49	27.91	20.07
Nc1ncc(-c2cnn(C3CCN(CCC4CCN(C(=O)COc5ccc6c(c5)C(=O)N(C5CCC(=O)NC5=O)C6=O)CC4)CC3)c2)nc1C(=O)O[C@@H](C(=O)Nc1ccc(F)cc1)c1ccccc1 (stereo partly drawn) [TDH-201, (R)-2-((4-fluorophenyl)amino)-2-oxo-1-phenylethyl 3-amino-6-(1-(1-(2-(1-(2-((2-(2,6-dioxopiperidin-3-yl)-1,3-dioxoisoindolin-5-yl)oxy)acetyl)piperidin-4-yl)ethyl)piperidin-4-yl)-1H-pyrazol-4-yl)pyrazine-2-carboxylate]	91.53	62.79	8.89	85.96	82.98		
Nc1ncc(-c2cnn(C3CCN(CCOC4CCN(C(=O)COc5ccc6nnn(C7CCC(=O)NC7=O)c(=O)c6c5)CC4)CC3)c2)nc1C(=O)O[C@@H](C(=O)Nc1ccc(F)cc1)c1ccccc1 (stereo partly drawn) [TDH-373, (R)-2-((4-fluorophenyl)amino)-2-oxo-1-phenylethyl 3-amino-6-(1-(1-(2-((1-(2-((3-(2,6-dioxopiperidin-3-yl)-4-oxo-3,4-dihydrobenzo[d][1,2,3]triazin-6-yl)oxy)acetyl)piperidin-4-yl)oxy)ethyl)piperidin-4-yl)-1H-pyrazol-4-yl)pyrazine-2-carboxylate]	62.68	40.09	8.85	87.78	86.6		
